Source: patent publication US12702660B2, “Method for treating cancer with an oral dosage form of an estrogen receptor-alpha inhibitor” (Eisai R&D Management Co., Ltd., priority 2019, dated 2026)
Like-named read-outs stand apart in the source and are kept apart here.

Experiment: Plasma PK of H3B-6545 capsules in fasted patients, phase 1 dose escalation
Assay type: in vivo, human
Settings: for Vd / Vd/F / Tmax / AUC(0-inf) / Cmax / half-life / AUC(0-t): female, human, plasma, oral; for Vd / Vd/F / AUC(0-inf) / Cmax / half-life / AUC(0-t): Geometric Mean (GeoCV %); for Vd: read-out: Vss; for Vd/F: read-out: Vz/F
Description: Blood samples were collected at the planned time points from each patient and centrifuged. The plasma portion of each sample was then transferred to a K2EDTA tube, which was then shipped to a bioanalytical lab for concentration measurement using LC-MS/MS. The concentration data were then analyzed using Phoenix® WinNonlin software to obtain PK parameters. The obtained PK parameters were further summarized using analytical software.
Blood samples (approximately 5 mL each) were collected from human patients pre-dose and at various hourly time points post-dose. Plasma concentrations of H3B-6545 were determined using a validated high-performance liquid chromatography/tandem mass spectrometry (LC-MS/MS) method. The lower limit of quantification was 0.100 ng/mL.
The PK Analysis Set included subjects who received H3B-6545 drug product in capsules or tablets and had sufficient evaluable plasma concentration data to derive at least 1 primary PK parameter in each treatment. Plasma concentrations of H3B-6545 (as free base) were tabulated and summarized at each nominal time using descriptive statistics (number of subjects, arithmetic mean with standard deviation [SD], coefficient of variation [CV %], geometric mean, median, minimum, and maximum) as appropriate. Individual and mean (±SD) plasma concentration-time profiles were provided for each treatment.
Pharmacokinetic parameters of H3B-6545 were calculated using noncompartmental methods, using an appropriate model for plasma data and extravascular administration. The PK parameters included, but were not limited to, area under the curve to the time of the last quantifiable concentration (AUC0-t), maximum concentration (Cmax), and time at which the maximum concentration occurred (tmax). If data permitted, the area under the plasma concentration-time curve extrapolated to infinity (AUC0-inf), terminal elimination half-life (t1/2), apparent total body clearance (CL/F), total systemic clearance after oral administration at steady state (CLss/F), apparent volume of distribution during the terminal phase (Vz/F), apparent steady-state volume of distribution (Vss), accumulation ratio for Cmax (RCmax) and accumulation ratio of AUC0-24 (RAUC) were also derived.
Methods were used to analyze whether H3B-6545 inactivates both wild-type and mutant ERα by targeting cysteine 530 and enforcing a unique antagonist conformation. Methods: Women with locally advanced or metastatic HR+BC are treated (tx) with H3B-6545 drug product administered once daily orally by capsule over a 28 day cycle after progression on at least one hormonal therapy and at least one additional therapy/regimen. Dose escalation uses a 3+3 design with the option to backfill previously cleared doses and allows for intrapatient dose escalation. This example explored the safety, pharmacokinetics and pharmacodynamics of H3B-6545 in women with HR+BC to identify a recommended subsequent dose for testing.
• H3B-6545 administered once daily orally over a 28 day cycle. • Dose escalation using a standard 3+3 study design using dose cohorts of 100, 200, 300, 450, and 600 mg QD. • Patients allowed to backfill previously cleared doses. • Intra-patient dose escalation allowed after completion of Cycle 3. Results (as of Apr. 20, 2019) Patient Population: • 46 patients were treated with H3B-6545 at doses of 100 to 600 mg QD. • 42 (91.3%) patients received a prior CDK4/6 inhibitor and 32 (69.6%) prior fulvestrant. • 30 (65.2%) patients received ≥3 prior anti-cancer therapy lines in the advanced/metastatic setting.
The clinical trial of Example 3 was continued and PK evaluations (of this Example 4) were made at a later date on the basis of a larger patient population. The summary of Tables 1 in Analysis of Pharmacokinetic (PK) of Capsules in Fasted Patients and 2 show PK parameters and profiles of human patients receiving capsules of H3B-6545 drug product prepared as in Example 1. […]

[1] = 100 mg, Cycle 1 Day 1, 100 mg QD capsules, fasted patients
[2] = 100 mg, Cycle 1 Day 15, 100 mg QD capsules, fasted patients
[3] = 200 mg, Cycle 1 Day 1, 200 mg QD capsules, fasted patients
[4] = 200 mg, Cycle 1 Day 15, 200 mg QD capsules, fasted patients
[5] = 300 mg, Cycle 1 Day 1, 300 mg QD capsules, fasted patients
[6] = 300 mg, Cycle 1 Day 15, 300 mg QD capsules, fasted patients
[7] = 450 mg, Cycle 1 Day 1, 450 mg QD capsules, fasted patients
[8] = 450 mg, Cycle 1 Day 15, 450 mg QD capsules, fasted patients
[9] = 600 mg, Cycle 1 Day 1, 600 mg QD capsules, fasted patients
[10] = 600 mg, Cycle 1 Day 15, 600 mg QD capsules, fasted patients

CN(C)C(=O)/C=C/CNCCOc1ccc(/C(=C(/CC(F)(F)F)c2ccccc2)c2ccc3[nH]nc(F)c3c2)cn1 [H3B-6545, (E)-N,N-dimethyl-4-[2-[5-[(Z)-4,4,4-trifluoro-1-(3-fluoro-1H-indazol-5-yl)-2-phenylbut-1-enyl]pyridin-2-yl]oxyethylamino]but-2-enamide]
Vd [1]: 713 L
Vd/F [1]: 689 L
Tmax (100 mg, Cycle 1 Day 1, 100 mg QD capsules, fasted patients, Median (Min, Max)): 3.05 h
AUC(0-inf) [2]: 2950 ng·h/mL
Cmax [2]: 287 ng/mL
half-life [2]: 11.5 h
AUC(0-t) (100 mg, Cycle 1 Day 15, 100 mg QD capsules, fasted patients, read-out: AUC0-24): 2560 ng·h/mL
AUC(0-t) (100 mg, Cycle 1 Day 15, 100 mg QD capsules, fasted patients, read-out: AUC0-t): 2590 ng·h/mL
Vd [2]: 679 L
Vd/F [2]: 731 L
Tmax (100 mg, Cycle 1 Day 15, 100 mg QD capsules, fasted patients, Median (Min, Max)): 2 h
AUC(0-inf) [3]: 5270 ng·h/mL
Cmax [3]: 473 ng/mL
half-life [3]: 9.73 h
AUC(0-t) (200 mg, Cycle 1 Day 1, 200 mg QD capsules, fasted patients, read-out: AUC0-24): 4760 ng·h/mL
AUC(0-t) (200 mg, Cycle 1 Day 1, 200 mg QD capsules, fasted patients, read-out: AUC0-t): 4810 ng·h/mL
Vd [3]: 567 L
Vd/F [3]: 532 L
Tmax (200 mg, Cycle 1 Day 1, 200 mg QD capsules, fasted patients, Median (Min, Max)): 5 h
AUC(0-inf) [4]: 7950 ng·h/mL
Cmax [4]: 605 ng/mL
half-life [4]: 10.1 h
AUC(0-t) (200 mg, Cycle 1 Day 15, 200 mg QD capsules, fasted patients, read-out: AUC0-24): 6870 ng·h/mL
AUC(0-t) (200 mg, Cycle 1 Day 15, 200 mg QD capsules, fasted patients, read-out: AUC0-t): 6910 ng·h/mL
Vd [4]: 456 L
Vd/F [4]: 455 L
Tmax (200 mg, Cycle 1 Day 15, 200 mg QD capsules, fasted patients, Median (Min, Max)): 2.17 h
AUC(0-inf) [5]: 11100 ng·h/mL
Cmax [5]: 898 ng/mL
half-life [5]: 9.58 h
AUC(0-t) (300 mg, Cycle 1 Day 1, 300 mg QD capsules, fasted patients, read-out: AUC0-24): 9480 ng·h/mL
AUC(0-t) (300 mg, Cycle 1 Day 1, 300 mg QD capsules, fasted patients, read-out: AUC0-t): 9520 ng·h/mL
Vd [5]: 416 L
Vd/F [5]: 374 L
Tmax (300 mg, Cycle 1 Day 1, 300 mg QD capsules, fasted patients, Median (Min, Max)): 4 h
AUC(0-inf) [6]: 12700 ng·h/mL
Cmax [6]: 1200 ng/mL
half-life [6]: 8.52 h
AUC(0-t) (300 mg, Cycle 1 Day 15, 300 mg QD capsules, fasted patients, read-out: AUC0-24): 12000 ng·h/mL
AUC(0-t) (300 mg, Cycle 1 Day 15, 300 mg QD capsules, fasted patients, read-out: AUC0-t): 12100 ng·h/mL
Vd [6]: 373 L
Vd/F [6]: 348 L
Tmax (300 mg, Cycle 1 Day 15, 300 mg QD capsules, fasted patients, Median (Min, Max)): 4 h
AUC(0-inf) [7]: 23000 ng·h/mL
Cmax [7]: 1500 ng/mL
half-life [7]: 11 h
AUC(0-t) (450 mg, Cycle 1 Day 1, 450 mg QD capsules, fasted patients, read-out: AUC0-24): 16200 ng·h/mL
AUC(0-t) (450 mg, Cycle 1 Day 1, 450 mg QD capsules, fasted patients, read-out: AUC0-t): 16200 ng·h/mL
Vd [7]: 343 L
Vd/F [7]: 311 L
Tmax (450 mg, Cycle 1 Day 1, 450 mg QD capsules, fasted patients, Median (Min, Max)): 4 h
AUC(0-inf) [8]: 17400 ng·h/mL
Cmax [8]: 1420 ng/mL
half-life [8]: 9.81 h
AUC(0-t) (450 mg, Cycle 1 Day 15, 450 mg QD capsules, fasted patients, read-out: AUC0-24): 14000 ng·h/mL
AUC(0-t) (450 mg, Cycle 1 Day 15, 450 mg QD capsules, fasted patients, read-out: AUC0-t): 14100 ng·h/mL
Vd [8]: 489 L
Vd/F [8]: 466 L
Tmax (450 mg, Cycle 1 Day 15, 450 mg QD capsules, fasted patients, Median (Min, Max)): 4 h
AUC(0-inf) [9]: 32900 ng·h/mL
Cmax [9]: 2050 ng/mL
half-life [9]: 13.1 h
AUC(0-t) (600 mg, Cycle 1 Day 1, 600 mg QD capsules, fasted patients, read-out: AUC0-24): 22400 ng·h/mL
AUC(0-t) (600 mg, Cycle 1 Day 1, 600 mg QD capsules, fasted patients, read-out: AUC0-t): 22300 ng·h/mL
Vd [9]: 366 L
Vd/F [9]: 344 L
Tmax (600 mg, Cycle 1 Day 1, 600 mg QD capsules, fasted patients, Median (Min, Max)): 4 h
AUC(0-inf) [10]: 39700 ng·h/mL
Cmax [10]: 1680 ng/mL
half-life [10]: 21.8 h
AUC(0-t) (600 mg, Cycle 1 Day 15, 600 mg QD capsules, fasted patients, read-out: AUC0-24): 18400 ng·h/mL
AUC(0-t) (600 mg, Cycle 1 Day 15, 600 mg QD capsules, fasted patients, read-out: AUC0-t): 18700 ng·h/mL
Vd [10]: 1100 L
Vd/F [10]: 1030 L
Tmax (600 mg, Cycle 1 Day 15, 600 mg QD capsules, fasted patients, Median (Min, Max)): 4 h
Tmax (as of 10 Dec. 2018, 100 to 450 mg/day capsules): 2 to 4 h
Tmax (as of Apr. 20, 2019, 100 to 600 mg QD): 2 to 4 h
plasma concentration, C1D1 versus C1D15 (once daily dosing): similar
